In one assay the test system is IL-12 p35 mRNA. Put plainly: Northern blot of IL-12 p35 mRNA in IFN-γ/SAC-stimulated THP-1 cells. The class given is cell-based, human. Particulars: THP-1, IFN-γ/SAC, 1 μM Compound 1. The protocol: (§1) Northern blot analysis was performed to examine the mRNA levels of IL-12 p35 and p40. Human PBMC and the human monocyte cell line THP-1 cells were stimulated with IFN-γ/SAC in the presence or absence of Compound 1. Human PBMC were isolated by centrifugation using Ficoll-Paque (Pharmacia Biotech, Uppsala, Sweden) and prepared in RPMI medium supplemented with 10% fetal calf serum (FCS), 100 U/ml penicillin, and 100 μg/ml streptomycin, in a 96-well plate with 5×10^5 cells/well. The cells were then primed with IFN-γ (100 U/ml) and followed by 0.01% SAC or 1 μg/ml LPS, in the presence of different concentrations of Compound 2 or other compounds. The test compounds were prepared in DMSO and the final DMSO concentration was adjusted to 0.25% in all cultures, including the compound-free control. Cell-free supernatants were taken 18 h later for the measurement of cytokines. The THP-1 cells were obtained from American Type Culture Collection (Manassas, Va.) and were cultured in RPMI 1640 (ATCC, Manassas, Va.), supplemented with 10% FCS (ATCC, Manassas, Va.), and 1% penicillin/Streptomycin (Gibco-BRL, New York, N.Y.). Total RNA was isolated and subjected to Northern blot analysis using IL-12 p35 and p40 cDNA probes. We first examined the kinetics of mRNA accumulation in cultures of hPBMC and THP-1 cells primed with IFN-γ followed by SAC stimulation in the presence or absence of 1 μM Compound 1.

A further assay deals with IL-12 p40 mRNA. Kind of assay: Northern blot of IL-12 p40 mRNA in IFN-γ/SAC-stimulated human PBMC. The class given is cell-based. Particulars: hPBMC; for IL-12 p40 mRNA accumulation: 6 h after SAC. The protocol:
as §1
We conducted a dose-response study of the inhibitory effects of Compound 1 on IL-12 mRNA expression in IFN-γ/SAC-stimulated hPBMC. Because both IL-12 p35 and p40 mRNA levels were maximal at 6 h after the addition of SAC, this time point was selected for the dose-response analysis.

The next assay deals with p65. Kind of assay: Western blot of nuclear p65 in THP-1 cells. Format: cell-based, human. From the text:
In order to understand this changes, the subcellular localization of NF-κB proteins was investigated using western blot analysis.
Of the transcription factors that have been analyzed, two factors, ICSBP and c-Rel, seem to be affected by Compound 1/Compound 2 treatment. ICSBP binds indirectly to the Ets-2 site. The primary NFκB trans-activator for IL-12 is the c-Rel/p50 heterodimer. Other dimers (p65/p50 and p50/p50) either lack activity or have inhibitory functions. Thus, c-Rel plays a role in IL-12 transcription as a result of both activation through NFκB and its interaction with ICSBP. […] The membranes were blocked with 5% milk in TBST buffer and then incubated with anti-c-Rel, anti-p65, anti-p50, anti-ICSBP or anti-PU-1 antibody (all the antibodies were purchased from Santa Cruz) at a dilution of 1:500 for 1 h at room temperature or overnight at 4° C. The membranes were washed and incubated with Horseradish Peroxidase-conjugated anti-rabbit IgG or anti-mouse IgG (Amersham, England) at a dilution of 1:2000 at room temperature for 1 h.
Compound 2 impairs nuclear translocation of c-Rel and p50. We examined the nuclear translocation kinetics of NF-kB family members in LPS stimulated cells treated with Compound 2. THP1 cells were stimulated with LPS in either the presence or absence of 100 nM Compound 2, and the distribution of the NF-κB Rel family members are determined by immunoblotting nuclear (n.p.) extracts collected at 5 min, 15 min, 30 min, 1 h, 3 h and 6 h post-treatment. In response to LPS stimulation, p50 translocated into the nucleus as early as 5 minutes post-stimulation and accumulates as time goes on (FIG. 7, immunoblots and FIG. 8 densitometry). […] The experiment examining p65 nuclear translocation is shown in FIG. 9 (immunoblots) and FIG. 10 (densitometry). In LPS stimulated cells, p65 translocated into the nucleus as early as 5 minutes post-stimulation and accumulated to maximum levels at 15-30 minutes post-stimulation. Treatment of LPS-stimulated cells with Compound 2 had no effect on the kinetics of p65 nuclear entry.
THP-1 cells were suspended in 20 volumes of buffer A containing 10 mM KCl, 10 mM HEPES (pH 7.9), 1 mM MgCl2, 1 mM dithiothreitol (DTT), 0.1% Nonidet p40 (NP-40), and 0.5 mM phenylmethylsulfonyl fluoride (PMSF) and homogenized and centrifuged at 10,000 rpm at 4 C for 5 min. Nuclear pellets were then suspended in buffer C containing 400 mM NaCl, 20 mM HEPES 9 pH 7.9), 15 mM MgCl2, 0.2 mM EDTA, 1 mM DTT, 25% glycerol, 1 mM PMSF, and 10 ug of leupeptin, 20 ug of pepstatin, and 10 ug/ml antipain, incubated for 30 min at 4 C, and centrifuged at 14,000 rpm for 20 min. The supernatants were dialyzed against buffer D containing 100 mM NaCl, 20 mM HEPES (pH 7.9), 20% glycerol, 1 mM PMSF, and 1 mM DTT. […]
For orientation: A western blot detects proteins with antibodies after separation by electrophoresis.

The test system of a further assay is Rel-B. Put plainly: Immunoblot of nuclear Rel-B in THP1 cells. Format: cell-based, human. Particulars: THP1, IFNg+LPS, 100 nM, 6 h. The protocol: Rel B and p52 are two members of Rel family, which are preferentially complexed with each other. Like p50 and p65, p52 is found in virtually all cell types, whereas c-Rel and Rel B have only been detected in lymphoid tissues. To determine the effect of Compound 2 on p52 and Rel-B nuclear translocation, THP1 cells were stimulated with IFNg+LPS in either the presence or absence of 100 nM Compound 2, and the distribution of p52 and Rel-B was determined by immunoblotting of nuclear at 6 h post-treatment.
THP-1 cells were suspended in 20 volumes of buffer A containing 10 mM KCl, 10 mM HEPES (pH 7.9), 1 mM MgCl2, 1 mM dithiothreitol (DTT), 0.1% Nonidet p40 (NP-40), and 0.5 mM phenylmethylsulfonyl fluoride (PMSF) and homogenized and centrifuged at 10,000 rpm at 4 C for 5 min. Nuclear pellets were then suspended in buffer C containing 400 mM NaCl, 20 mM HEPES 9 pH 7.9), 15 mM MgCl2, 0.2 mM EDTA, 1 mM DTT, 25% glycerol, 1 mM PMSF, and 10 ug of leupeptin, 20 ug of pepstatin, and 10 ug/ml antipain, incubated for 30 min at 4 C, and centrifuged at 14,000 rpm for 20 min. The supernatants were dialyzed against buffer D containing 100 mM NaCl, 20 mM HEPES (pH 7.9), 20% glycerol, 1 mM PMSF, and 1 mM DTT.
The 10% SDS Polyacrylamide gels (Invitrogen) were transferred to Pure Nitrocellulose membrane (BioRed, Hercules, Calif.). […]

The next assay has as its system IL-12 p40. Kind of assay: IL-12 p40 inhibition after Toxoplasma antigen (STAg) versus IFN-γ/SAC stimulus. Particulars: preliminary results. The class given is cell-based. On the procedure: Compound 2 did, in fact, inhibit p70 but not p40 production in human DCs (no inhibition at up to 10 μM Compound 2). […] Therefore, if Compound 2 is acting through c-Rel, we should not observe potent inhibition of IL-12 p40 following STAg stimulation. […] These two results further confirm that the inhibition of IL-12 production by Compound 2 is via the c-Rel pathway.

Results on two compounds are retold here after patent US9910031B2, “Compositions and methods for modulating c-Rel-dependent cytokine production” (Synta Pharmaceuticals Corporation, priority 2003, dated 2018).

Take `C(=NNc1nc(OCCc2ccccn2)nc(N2CCOCC2)n1)c1c[nH]c2ccccc12` [Compound 1, N-(1H-indol-3-ylmethylene)-N′-[4-morpholin-4-yl-6-(2-pyridin-2-yl-ethoxy)-[1,3,5]triazin-2-yl]-hydrazine]: in the assay with IL-12 p35 mRNA, the “IL-12 p35 mRNA” value is reported as “undetectable”. Besides, in the assay on IL-12 p40 mRNA (1 μM Compound 1), the “expression of the mRNA for the p40 subunit” value is listed as “reduced significantly but incompletely”. In addition, the “IL-12 p40 mRNA accumulation” value in the assay with IL-12 p40 mRNA (1 nM) was “barely inhibited”; with IL-12 p40 mRNA (10 nM), “maximum, though still incomplete inhibition”.
For `Cc1cccc(C=NNc2cc(N3CCOCC3)nc(OCCc3ccccn3)n2)c1` [Compound 2, N-(3-methyl-benzylidene)-N′-[6-morpholin-4-yl-2-(2-pyridin-2-yl-ethoxy)-pyrimidin-4-yl]-hydrazine], in the assay on p65 (500 nM, 3 hr, relative to untreated cells), the “amount of p65 in nuclear” value is given as “significantly increased”. For the same compound, the “nuclear p65 protein (FIG. 4)” value with p65 (THP1, IFN-γ plus LPS or IFN-γ plus SAC) was “increased”. Moreover, the “kinetics of p65 nuclear entry” value in the assay on p65 (THP1, LPS, 100 nM) is recorded as “no effect”. In addition, the “level of nuclear p65” value with p65 (THP1, LPS, 100 nM, 6 hours, relative to untreated cells) is “small increase”. In addition, the “nuclear Rel-B (FIG. 11)” value in the assay on Rel-B is “slightly increased”. For the same compound, in the assay on IL-12 p40, the “IC50 of p40 inhibition with STAg induction relative to IFN-γ/SAC stimulus” value is reported as “approximately 1000 times”.
